Results as given in PMC5535168 (Toxins, 2017).
Where “and” joins values, the source holds several entries; their conditions need not be identical. Identical values can stand only once. Like-named read-outs stand apart in the source and are kept apart here. Where a SMILES comes first, the peptide text is derived from it. Where no end group is shown, it is not given here. The star is where a group is joined. Biotin = O=C1N[C@H]2[C@H](CS[C@H]2CCCCC(=O)*)N1

Experiments:
mAb AVR1675 = format: binding, mouse
AVR1675 mAb = format: binding, mouse
[1] = target: AVR1675 (LFG2 3F3:3D10 IgG1 kappa) (mouse); experiment: ELISA
Chain of AVR1675 (LFG2 3F3:3D10 IgG1 kappa) (mouse) (heavy, as listed by the source): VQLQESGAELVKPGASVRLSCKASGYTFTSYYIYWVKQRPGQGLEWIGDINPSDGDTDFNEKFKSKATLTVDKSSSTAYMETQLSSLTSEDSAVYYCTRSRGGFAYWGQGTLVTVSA

## CC[C@H](C)[C@H](NC(=O)[C@H](CCC(=O)O)NC(=O)[C@H](CC(=O)O)NC(=O)[C@H](CCC(N)=O)NC(=O)[C@H](Cc1c[nH]cn1)NC(=O)[C@@H](N)[C@@H](C)O)C(=O)N[C@@H](Cc1ccc(O)cc1)C(=O)N[C@@H](CCC(=O)O)C(=O)N[C@@H](CCC(N)=O)C(=O)N[C@@H](CCCCNC(=O)CCCC[C@@H]1SC[C@@H]2NC(=O)N[C@@H]21)C(=O)O [Native LF core sequence] (H-THQDEIYEQK(Biotin)-OH)
mAb AVR1675
  % R of Consensus: 14%
  Response (nm): 0.7024 nm
mAb AVR1675; read-out: KD (M) *
  Kd: > 1e-07 M

## CC[C@H](C)[C@H](NC(=O)[C@H](CC(N)=O)NC(=O)[C@@H]1CCCN1)C(=O)N[C@@H](C)C(=O)N[C@@H](CCC(=O)O)C(=O)N[C@@H](CCC(N)=O)C(=O)N[C@@H](Cc1ccc(O)cc1)C(=O)N[C@H](C(=O)N[C@@H](Cc1c[nH]cn1)C(=O)N[C@@H](CCC(N)=O)C(=O)N[C@@H](CC(=O)O)C(=O)N[C@@H](CCC(=O)O)C(=O)N[C@H](C(=O)N[C@@H](Cc1ccc(O)cc1)C(=O)N[C@@H](CCC(=O)O)C(=O)N[C@@H](CCC(N)=O)C(=O)N[C@H](C(=O)N[C@@H](Cc1c[nH]cn1)C(=O)N[C@@H](CO)C(=O)N[C@@H](CCCCN)C(=O)NCC(=O)N[C@@H](CC(C)C)C(=O)N[C@@H](Cc1ccc(O)cc1)C(=O)N[C@H](C(=O)N1CCC[C@H]1C(=O)N[C@@H](CCC(=O)O)C(=O)N[C@@H](CO)C(=O)N[C@@H](CCCNC(=N)N)C(=O)NCC(=O)NCC(=O)NCC(=O)N[C@@H](CO)C(=O)N[C@@H](CCCCNC(=O)CCCC[C@@H]1SC[C@@H]2NC(=O)N[C@@H]21)C(=O)O)C(C)C)C(C)C)[C@@H](C)CC)[C@@H](C)O [Native LF extended sequence]
mAb AVR1675
  % R of Consensus: 14%
  Response (nm): 0.7024 nm
mAb AVR1675; read-out: KD (M) *
  Kd: > 1e-07 M

## CC[C@H](C)[C@H](NC(=O)[C@H](CCC(=O)O)NC(=O)[C@H](CC(=O)O)NC(=O)[C@H](CCCCN)NC(=O)[C@H](Cc1ccccc1)NC(=O)[C@@H](N)[C@@H](C)O)C(=O)NCC(=O)NCC(=O)NCC(=O)N[C@@H](CO)C(=O)N[C@@H](CCCCNC(=O)CCCC[C@@H]1SC[C@@H]2NC(=O)N[C@@H]21)C(=O)O [φC8-derived Reference Sequence] (H-TFKDEIGGGSK(Biotin)-OH; N-terminus and C-terminus assumed)
mAb AVR1675
  % R of Consensus: 100%
  Binding relative to the LF-sequence derived oligopeptides: seven-fold higher binding
  R (binding response, running text): 4.84 nm
  Response (nm): 4.8387 nm
mAb AVR1675; read-out: KD (M) *
  Kd: 1.39e-08 M
mAb AVR1675; read-out: KD (equilibrium affinity constant)
  Kd: 9.97e-09 M

## TVRD D Q I [φD7]
AVR1675 mAb
  Phage ELISA Reactivity (class): High (OD 1.78) (key: High = OD > 1.0; Intermediate = OD 0.5–1.0; Low = OD < 0.5)

## TVRD EP L [φE12]
AVR1675 mAb
  Phage ELISA Reactivity (class): High (OD 1.70) (key: High = OD > 1.0; Intermediate = OD 0.5–1.0; Low = OD < 0.5)

## TFKDDLFGGGS (not fully specified) [phage-displayed peptide T-F-K-D-D-L-F (phage clone φC7)]
[1]
  OD (phage ELISA reactivity): 1.56 OD

## TYRDDPPGGGS (not fully specified) [phage-displayed peptide T-Y-R-D-D-P-P (phage clone φE5)]
[1]
  OD (phage ELISA reactivity): 1.55 OD

## TFRDEPMGGGS (not fully specified) [phage-displayed peptide T-F-R-D-E-P-M (phage clone φB9)]
[1]
  OD (phage ELISA reactivity): 1.71 OD

## TFLDDAPGGGS (not fully specified) [phage-displayed peptide T-F-L-D-D-A-P (phage clone φE2)]
[1]
  OD (phage ELISA reactivity): 1.22 OD

## TFKDDGYGGGS (not fully specified) [phage-displayed peptide T-F-K-D-D-G-Y (phage clone φD4)]
[1]
  OD (phage ELISA reactivity): 0.08 OD

## TVLDDVAGGGS (not fully specified) [phage-displayed peptide T-V-L-D-D-V-A (phage clone φC2)]
[1]
  OD (phage ELISA reactivity): 0.36 OD

## TFKDDIHGGGS (not fully specified) [phage-displayed peptide T-F-K-D-D-I-H (phage clone φC9)]
[1]
  OD (phage ELISA reactivity): 1.33 OD

## TVRDEPLGGGS (not fully specified) [phage-displayed peptide T-V-R-D-E-P-L (phage clone φE12)]
[1]
  OD (phage ELISA reactivity): 1.7 OD

## TWRDDIPGGGS (not fully specified) [phage-displayed peptide T-W-R-D-D-I-P (phage clone φD8)]
[1]
  OD (phage ELISA reactivity): 0.79 OD

## TVRDDQIGGGS (not fully specified) [phage-displayed peptide T-V-R-D-D-Q-I (phage clone φD7)]
[1]
  OD (phage ELISA reactivity): 1.78 OD

## TYKDDIRGGGS (not fully specified) [phage-displayed peptide T-Y-K-D-D-I-R (phage clones φB5 and φD2)]
[1]
  OD (phage ELISA reactivity): 1.65 OD and 1.78 OD

## TYLDDLYGGGS (not fully specified) [phage-displayed peptide T-Y-L-D-D-L-Y (phage clones φB6 and φD11)]
[1]
  OD (phage ELISA reactivity): 1.77 OD and 1.7 OD
